According to article PMC5639602, “Role of microglial amylin receptors in mediating beta amyloid (Aβ)-induced inflammation” (Journal of Neuroinflammation, 2017):
Entries after “also recorded” stand apart in the source; their conditions may differ. Ends that are not written are not given here.

What was measured:
[1] = test system: NLRP3 in human fetal microglial (HFM) cultures; assay: NLRP3 immunostaining in human fetal microglia; format: cell-based; conditions: vs basal
Experimental: Two different types of microglial, primary cultures of human fetal microglia and mouse microglial BV2 cell line, were used for in vitro testing of amylin receptor function. This approach provided confirmation of the presence of microglial amylin receptors across species and cross-validated our observations on the function of amylin receptors in both primary cell cultures and a frequently used cell line. Primary mixed glial cultures were prepared from 12- to 15-gestational-week fetuses as previously reported. Briefly, the meninges and blood vessels were removed and the brain tissue was washed in minimum essential medium and mechanically dissociated by repeated trituration through a 20-gauge needle. Cells were centrifuged at 1500g for 10 min and re-suspended in minimum essential medium with 10% fetal bovine serum. The cultures were grown in a 5% CO2 humidified incubator at 37 °C. After mixed glial cultures were completely confluent, human fetal microglia (HFM) were isolated by shaking flasks at 100 rpm (IKA KS-260, IKA Works, Wilmington, NC) for 1 h at 37 °C. The media was then collected and centrifuged at 2500 RCF for 5 min at 4 °C. Cell pellets were re-suspended in microglia plating media (MEM + 10% FBS + 1% penicillin/streptomycin). HFM were plated at a 2 × 10^5 cells per milliliter density, and microglia were allowed to attach overnight before further use for experiments. BV2 cells (kindly provided by Dr. T. Trang, University of Calgary) were cultured in DMEM/F12 media with 10% FBS. For all in vitro experiments, primary human fetal microglial cultures and BV2 cell cultures, each experiment was performed on a fresh batch of cell cultures and repeated a minimum of four times. […]
(§1) For cultured cell immunofluorescent staining, cells were plated on Lab-TEK chamber slide (ThermoFisher) and fixed with 4% paraformaldehyde (PAF) in PBS, then permeabilized with 0.3% Triton X-100 in PBS and blocked with 2% BSA + 10% goat serum for 1 h. […] Fluorescent microscopy images were acquired with an Axioplan-2 fluorescence microscope with AxioVision software (Carl Zeiss Ltd., Toronto, ON, Canada).

caspase-1 in BV2 cells = assay: Caspase-1 expression in BV2 cells; format: cell-based, mouse
Experimental: (§2) Two different types of microglial, primary cultures of human fetal microglia and mouse microglial BV2 cell line, were used for in vitro testing of amylin receptor function. This approach provided confirmation of the presence of microglial amylin receptors across species and cross-validated our observations on the function of amylin receptors in both primary cell cultures and a frequently used cell line. Primary mixed glial cultures were prepared from 12- to 15-gestational-week fetuses as previously reported. Briefly, the meninges and blood vessels were removed and the brain tissue was washed in minimum essential medium and mechanically dissociated by repeated trituration through a 20-gauge needle. Cells were centrifuged at 1500g for 10 min and re-suspended in minimum essential medium with 10% fetal bovine serum. The cultures were grown in a 5% CO2 humidified incubator at 37 °C. […]
as §1

[2] = test system: human fetal microglia (HFM); amylin receptor; assay: Intracellular Ca2+ imaging (Fluo-8L-AM, confocal) in human fetal microglia; format: cell-based; conditions: 1 μM
Experimental: Two different types of microglial, primary cultures of human fetal microglia and mouse microglial BV2 cell line, were used for in vitro testing of amylin receptor function. […] Primary mixed glial cultures were prepared from 12- to 15-gestational-week fetuses as previously reported [21, 22]. Briefly, the meninges and blood vessels were removed and the brain tissue was washed in minimum essential medium and mechanically dissociated by repeated trituration through a 20-gauge needle. Cells were centrifuged at 1500g for 10 min and re-suspended in minimum essential medium with 10% fetal bovine serum. The cultures were grown in a 5% CO2 humidified incubator at 37 °C. After mixed glial cultures were completely confluent, human fetal microglia (HFM) were isolated by shaking flasks at 100 rpm (IKA KS-260, IKA Works, Wilmington, NC) for 1 h at 37 °C. The media was then collected and centrifuged at 2500 RCF for 5 min at 4 °C. Cell pellets were re-suspended in microglia plating media (MEM + 10% FBS + 1% penicillin/streptomycin). HFM were plated at a 2 × 10^5 cells per milliliter density, and microglia were allowed to attach overnight before further use for experiments. […] For all in vitro experiments, primary human fetal microglial cultures and BV2 cell cultures, each experiment was performed on a fresh batch of cell cultures and repeated a minimum of four times. Statistical analysis was performed on mean data.
Ca^2+ concentration were monitored with confocal microscopy as described previously [23, 24]. Briefly, HFMs were plated on glass coverslips pre-coated with poly-L-ornithine and incubated at 37 °C for 12–36 h. Then, incubated with 5 μM of membrane-permeant fluorescent Ca^2+-sensitive dye Fluo-8L-AM (AAT Bioquest, Inc., Sunnyvale, CA) for 40 min at room temperature (20–23 °C) within < 2 h before imaging. For Ca^2+ imaging, the superfusate of ion content similar to extracellular brain fluid thus contain the following: 130 mM NaCl, 4 mM KCl, 1 mM MgCl2, 2 mM CaCl2, 10 mM HEPES, and 10 mM glucose (pH 7.35) was applied at a rate of 3 ml/min using a roller pump (Watson-Marlow Alitea, Sin-Can, Calgary, AB, Canada). […] Fluorescence intensity was monitored with a FV-300 laser-scanning confocal microscope (Olympus FV300, Markham, Ontario, Canada) equipped with an argon laser (488 nm) and excitation/emission filters (FF02-520/28-25; Semrock, Inc.) for an emission wavelength at 514 nm, measured with a numerical aperture of 0.95 20× XLUMPlanF1 objective (Olympus). Images were acquired at scan rates of 1.25–1.43 per second using a 2–3× digital zoom at full-frame (512 × 512 pixel) resolution. Regions of interest were drawn around distinct cell bodies, and analysis of time courses of change in fluorescence intensity were generated with FluoView software (version 4.3; Olympus). […]

AMY3 receptor subtype = conditions: ref [23]; cited from earlier work
Excerpt: (§3) As a neuroendocrine hormone, amylin mediates glycemic regulation, energy balance control, and cognitive/motivational processes. Human amylin also modulates autoimmunity and innate inflammation through regulatory T cells. Amyloid precursor protein (APP) and Aβ interact with variety of G-protein-coupled receptors (GPCRs) including amylin receptors. Amylin receptors (AMYs) are a dimerized calcitonin receptor (CTR) with receptor activity-modifying proteins (RAMPs) and belong to class B GPCRs. We have previously shown that hAmylin and Aβ preferentially activate AMY3 recep ...

[3] = test system: hippocampal long-term potentiation; conditions: ref [20], [39]; cited from earlier work
Excerpt: as §3

caspase-1 in HFM = assay: Caspase-1 expression, fluorometric assay, human fetal microglia; format: cell-based
Experimental: as §2, §1

BV2 cells = assay: Aβ uptake and plaque-like structure formation in BV2 cells (thioflavin S); format: cell-based, mouse; conditions: BV2, 1 μM, 24 h, thioflavin S staining
Experimental: as §2, §1

[4] = test system: cytokine gene expression in HFM; assay: Cytokine RT-PCR array in human fetal microglia; format: cell-based; conditions: 1 μM, 6 h, vs untreated
Experimental: The PCR array for TNFα, IL1β, and IL23 gene expression used the RT^2 Profiler PCR Array system (96-well assay plate, SABiosciences) following product instruction. […] RNA was isolated with Rneasy Mini kit (Qiagen) as per the product instructions. For each PCR Array, 4 μg of total RNA were used to prepare cDNA with the appropriate first strand kit from SABiosciences. The cDNA was characterized on the iCycler® iQ Real-Time PCR System (Bio-Rad Laboratories) using the RT2 Profiler PCR Arrays. The resulting raw data were then analyzed using the PCR Array Data Analysis Template and expressed as gene expression fold-change after treatment compared to the control untreated HFM cultures.

AMY3 = assay: cAMP in-cell Western, AMY3-expressing HEK293 cells; format: cell-based; conditions: 5 min
Excerpt: (§4) In order to characterize the antagonist activity of cAC253 at subtypes of amylin receptors, we compared hAmylin-generated cAMP responses in stably expressed AMY1, AMY2, and AMY3 and CTR receptors in HEK293 cells and wild-type HEK (HEK-WT) cells (Additional file 1).
(§5) For in-cell Western blot cyclic adenosine monophosphate (cAMP) quantification, mouse monoclonal anti-cAMP (R&D Systems) was used as a primary antibody and IRDye 700 goat anti mouse antibody (LI-COR) was used as a secondary antibody. Plates were imaged using an Odyssey Infrared Imaging System (LI-COR), and the integrated intensity was normalized to the total cell number on the same well as previously described.
(§6) Amylin receptor subtypes stably expressed in human embryonic kidney (HEK293) cell-line were generated and characterized as described in a previous published article from our laboratory ( Fu et al., J. Biol. Chem. 2012). […]
(§7) The in-cell Western blot cyclic adenosinemonophosphate (cAMP) quantification was used as previously described (Fu et al., J Biol Chem. 2012). […] The cAMP was measured at 5 min after treatment, i.e., at 5 min after different concentration of hAmylin and/or cAC253 treatment, cells were fixed with 4% paraformaldehyde in PBS for 10 min. […] Plates were imaged using an Odyssey Infrared Imaging System (LI-COR), and the integrated intensity was measured. […]

AMY2 = assay: cAMP in-cell Western, AMY2-expressing HEK293 cells; format: cell-based; conditions: 5 min
Excerpt: as §4, §5, §6, §7

AMY1 = assay: cAMP in-cell Western, AMY1-expressing HEK293 cells; format: cell-based; conditions: 5 min
Excerpt: as §4, §5, §6, §7

CTR = assay: cAMP in-cell Western, CTR-expressing HEK293 cells; format: cell-based; conditions: 5 min
Excerpt: as §4, §5, §6, §7

[5] = test system: HEK wild-type control cells; assay: cAMP in-cell Western, wild-type HEK cells; format: cell-based, human; conditions: 5 min
Excerpt: as §4, §5
The in-cell Western blot cyclic adenosinemonophosphate (cAMP) quantification was used as previously described (Fu et al., J Biol Chem. 2012). Briefly, amylin receptor stable cells were plated at a density of 4x10^4 cells/well in a 96-well plate and cultured for 24 hours. On the day of experiment, culture media was replaced with serum free DMEM medium and further incubate for 6 h before treatment. The cAMP was measured at 5 min after treatment, i.e., at 5 min after different concentration of hAmylin and/or cAC253 treatment, cells were fixed with 4% paraformaldehyde in PBS for 10 min. […] Plates were imaged using an Odyssey Infrared Imaging System (LI-COR), and the integrated intensity was measured. […]

transgenic AD mice = conditions: systemic administration, ref [40], [41]; cited from earlier work
Excerpt: as §3

Substance | NLRP3 level [1] | NLRP3 level ([1]; listed as Aβ) | Caspase-1 expression (caspase-1 in BV2 cells) | Time to Ca2+ increase after entry of the peptide into the imaging chamber ([2]; 30 s application) [min] | Activation of AMY3 receptor subtype with downstream MAPK and Akt signaling (AMY3 receptor subtype) | Effect on hippocampal long-term potentiation [3] | Caspase-1 expression (caspase-1 in HFM) | Uptake of Aβ1–42 and formation of plaque-like structures (BV2 cells) | IL1β gene expression [4] | TNFα gene expression [4] | Receptor activation (cAMP) (AMY3) | Receptor activation (cAMP) (AMY2) | Receptor activation (cAMP) (AMY1) | Time of return of Ca2+ to base line ([2]; 30 s application) [min] | Intracellular Ca2+ change ([2]; bath application 30 s, Fluo-8, pooled n = 123 HFM in 12 culture wells, four batches) | Receptor activation (cAMP) (CTR) | cAMP response [5] | Effect on hAmylin- and Aβ-induced depression of hippocampal long-term potentiation [3] | Amyloid burden in the brain (transgenic AD mice) | Efflux of Aβ across the blood brain barrier (transgenic AD mice)
Aβ1–42: soluble oligomeric amyloid beta 1–42 peptide from rPeptide | Increased activation of the inflammasome, NLRP3 | increased significantly | increased | ≤ 1 | preferentially activate AMY3 receptor subtype | depression of hippocampal long-term potentiation | increased | uptake of the peptide into the microglia and formation of plaque-like structures on the cell surface; also recorded: taken up into the cells and formed plaque-like structures | increases | increases | – | – | – | – | – | – | – | – | – | –
hAmylin: human amylin, the endogenous peptide that binds to the amylin receptor; purchased from American Peptide (KCNTATCATQRLANFLVHSSNNFGAILSSTNVGSNTY; not fully specified (C-terminus, bridges); cysteine pairing not given here; UniProt P10997 34-70, looked up) | increased significantly; also recorded: Increased activation of the inflammasome, NLRP3 | – | increased | ≤ 1 | preferentially activate AMY3 receptor subtype | depression of hippocampal long-term potentiation | increased | – | increases | increases | activated | not significantly | activated | ≤ 2 | robust Ca^2+ increase | not significantly | not significantly | – | – | –
pramlintide | – | – | – | – | – | – | – | – | – | – | – | – | – | – | – | – | – | attenuate | reduce amyloid burden in the brain | promoting an efflux of Aβ across the blood brain barrier
